The test system of one series is IL17A. In words: skin Resident Immune Cell Assay (sRICA), Th17 model, IL17A protein in media. The class given is cell-based. The note with it: 100 uM solution in 1% DMSO/OD applied topically to human skin, media collected 24 hours after Th17 activation. An outline of the steps: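 Human surgical skin, dermatomed to 750μm, 8 mm biopsies cultured air-liquid in transwells; RORγt inhibitors applied topically at 100 uM in 1% DMSO/OD, up to 24 h before Th17 activation by cytokine/antibody cocktail. IL17A measured in media 24 h post-activation by SiMoA, expressed as % of activated untreated skin.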

In a further series the test system is Th17 associated genes. In words: expression of Th17 associated genes in skin by real-time quantitative reverse transcription PCR. It is filed as cell-based. The conditions noted are these: skin harvested 24 hours after induction of inflammation. On the procedure:
Studies were carried out to determine the effect of two RORγt inhibitors of the present disclosure (i.e., Compound 1 and Compound 2, prepared in formulation as described in Example 1) on Th17 associated genes. Skin was harvested from subjects 24 hours after induction of inflammation. The RNA from the samples were isolated, and expression of the genes were quantified through real-time quantitative reverse transcription PCR. Clobetasol was used as a positive control.

The test system of series [1] is imiquimod (IMQ)-induced psoriasis in mice. In words: IMQ-induced psoriasis in mice, topical treatment. It is filed as in vivo. The note with it: 0.05% topical clobetasol cream, 10% body surface area. From the text: Topical application of imiquimod (IMQ), a TLR7/8 ligand and potent immune activator, is applied to the shaved backs and ears of mice to induce psoriasis. Information on the murine model of IMQ-induced psoriasis can be found at van der Fits L, Mourits S, Voerman JS, Kant M, Boon L, Laman JD, et al. Imiquimod-induced psoriasis-like skin inflammation in mice is mediated via the IL-23/IL-17 axis. J Immunol. 2009; 182:5836-45, which is hereby incorporated by reference in its entirety. Following administration of IMQ, mice ears and skin are observed for erythema, occurrence of scales and thickness after a period of six days. One group of mice were administered 0.05% topical clobetasol cream (10% body surface area), a potent topical steroid, as a positive control, and one group of mice received topical vehicle lacking Compoun 1 (10% body surface area), and one group was administered Compound 1 (3% formulation)(10% body surface area).
The mice were evaluated for erythema, presence of scales, thickness of ear tissue and body weight following administration of the treatments described above. Erythema and scales are determined by comparing the mice to a reference for color and severity of scaling.

The text below walks through data of patent publication US20220409643A1, “ROR Gamma T Inhibitors and Topical Uses Thereof” (Dermira, inc., priority 2019, published 2022).

As usually defined, the inhibition is the change of the read-out against control, counted positive when it falls. In the case of `COCc1ccc2c(n1)CCN(C(=O)Cc1cc(O)no1)[C@H]2C(=O)Nc1cc(F)c([Si](C)(C)C)c(F)c1` [(5R)-N-(3,5-difluoro-4-(trimethylsilyl)phenyl)-6-((3-hydroxy-1,2-oxazol-5-yl)acetyl)-2-(methoxymethyl)-5,6,7,8-tetrahydro-1,6-naphthyridine-5-carboxamide], the inhibition at 100 µM in the series on IL17A (Homo sapiens, 24 h) was determined as 60.1%.

Consider `COc1ccc2c(n1)CCN(C(=O)Cc1cc(O)no1)[C@H]2C(=O)Nc1cc(F)c([Si](C)(C)C)c(F)c1` [(5R)-N-(3,5-difluoro-4-(trimethylsilyl)phenyl)-6-((3-hydroxy-1,2-oxazol-5-yl)acetyl)-2-methoxy-5,6,7,8-tetrahydro-1,6-naphthyridine-5-carboxamide], for which, in the series on IL17A (Homo sapiens, 24 h), the inhibition at 100 µM stood at 49.4%.

Consider `COCc1ccc2c(n1)CCN(C(=O)c1cc(O)no1)[C@H]2C(=O)Nc1cc(F)c([Si](C)(C)C)c(F)c1` [(5R)-N-(3,5-difluoro-4-(trimethylsilyl)phenyl)-6-((3-hydroxy-1,2-oxazol-5-yl)carbonyl)-2-(methoxymethyl)-5,6,7,8-tetrahydro-1,6-naphthyridine-5-carboxamide], for which the inhibition at 100 µM with IL17A (Homo sapiens, 24 h) was -15.5%.

`COc1ccc2c(n1)CCN(C(=O)Cc1cc(O)no1)[C@H]2C(=O)Nc1ccc([Si](C)(C)C)c(F)c1` [(5R)-N-(3-fluoro-4-(trimethylsilyl)phenyl)-6-((3-hydroxy-1,2-oxazol-5-yl)acetyl)-2-methoxy-5,6,7,8-tetrahydro-1,6-naphthyridine-5-carboxamide]: the inhibition at 100 µM in the series with IL17A (Homo sapiens, 24 h) worked out at 22.2%.

Turning to `CC[Si](C)(C)c1c(F)cc(NC(=O)[C@H]2c3ccc(COC)nc3CCN2C(=O)c2cc(O)no2)cc1F` [(5R)-N-(4-(ethyl(dimethyl)silyl)-3,5-difluorophenyl)-6-((3-hydroxy-1,2-oxazol-5-yl)carbonyl)-2-(methoxymethyl)-5,6,7,8-tetrahydro-1,6-naphthyridine-5-carboxamide], the inhibition at 100 µM with IL17A (Homo sapiens, 24 h) was determined as 48.5%.

With `COc1ccc2c(n1)CCN(C(=O)Cc1cc(O)no1)[C@H]2C(=O)Nc1ccc(C(C)(C)C)c(F)c1` [(5R)-N-(4-tert-butyl-3-fluorophenyl)-6-((3-hydroxy-1,2-oxazol-5-yl)acetyl)-2-methoxy-5,6,7,8-tetrahydro-1,6-naphthyridine-5-carboxamide], the inhibition at 100 µM in the series with IL17A was 69.5%.

Turning to `COc1ccc2c(n1)CCN(C(=O)Cc1cc(O)no1)[C@H]2C(=O)Nc1cc(F)c2c(c1)CCC2(C)C` [(5R)-N-(7-fluoro-1,1-dimethyl-2,3-dihydro-1H-inden-5-yl)-6-((3-hydroxy-1,2-oxazol-5-yl)acetyl)-2-methoxy-5,6,7,8-tetrahydro-1,6-naphthyridine-5-carboxamide], in the series with IL17A, the inhibition at 100 µM came out at 19.2%.

For the molecule `COc1ccc2c(n1)CCN(C(=O)c1cc(O)no1)[C@H]2C(=O)Nc1cc(F)c2c(c1)CCC2(C)C` [(5R)-N-(7-fluoro-1,1-dimethyl-2,3-dihydro-1H-inden-5-yl)-6-((3-hydroxy-1,2-oxazol-5-yl)carbonyl)-2-methoxy-5,6,7,8-tetrahydro-1,6-naphthyridine-5-carboxamide], the inhibition at 100 µM in the series on IL17A came to 46.9%.

Take `C[C@H]1C[C@H]2[C@@H]3CCC4=CC(=O)C=C[C@]4(C)[C@@]3(F)[C@@H](O)C[C@]2(C)[C@@]1(O)C(=O)CCl` [Clobetasol]: in the series on Th17 associated genes, the CCL-20 gene expression is on record as 10% reduction, the FoxP3 gene expression was 6-fold increase, the IL-17A gene expression was 68% reduction and the IL-19 gene expression was 53% reduction. In the series on Th17 associated genes, this molecule came in with an IL-36γ gene expression of 60% reduction, an S100A7 gene expression of 62% reduction, a SerapinB gene expression of 65% reduction and a TNFα gene expression of 25% reduction. Besides, the “Body weight change / systemic toxicity” value in series [1] is “significant weight loss”.

On to `CN(C(=O)c1cc(O)no1)C(C(=O)Nc1cc(F)c([Si](C)(C)C)c(F)c1)C1CCOCC1` (centres unmarked) [N-(2-((3,5-difluoro-4-(trimethylsilyl)phenyl)amino)-2-oxo-1-(tetrahydro-2H-pyran-4-yl)ethyl)-3-hydroxy-N-methyl-1,2-oxazole-5-carboxamide], for which the inhibition at 100 µM in the series with IL17A (Homo sapiens, 24 h) stood at 31.7%.

`COCc1ccc(C(NC(=O)C2CNC(=O)C2)C(=O)Nc2ccc([Si](C)(C)C)c(F)c2)cc1` (centres unmarked) [N-(2-((3-fluoro-4-(trimethylsilyl)phenyl)amino)-1-(4-(methoxymethyl)phenyl)-2-oxoethyl)-5-oxopyrrolidine-3-carboxamide]: the inhibition at 100 µM in the series on IL17A (Homo sapiens, 24 h) stood at 85.2%.

For the molecule `COc1ccc(C(NC(=O)C2CNC(=O)C2)C(=O)Nc2ccc([Si](C)(C)C)c(F)c2)cc1` (centres unmarked) [N-(2-((3-fluoro-4-(trimethylsilyl)phenyl)amino)-1-(4-methoxyphenyl)-2-oxoethyl)-5-oxopyrrolidine-3-carboxamide], in the series with IL17A (Homo sapiens, 24 h), the inhibition at 100 µM was determined as 65.8%.

Take `CCn1c(=O)n(CCCOC)c(=O)c2cc(NC(=O)CC(C)CC(=O)Nc3ccc(C#N)c(Cl)c3)ccc21` (centres unmarked) [N-(3-chloro-4-cyanophenyl)-N′-(1-ethyl-3-(3-methoxypropyl)-2,4-dioxo-1,2,3,4-tetrahydroquinazolin-6-yl)-3-methylpentanediamide]: in the series on IL17A (Homo sapiens, 24 h), the inhibition at 100 µM is 60.8%.

For `COc1ccc([C@H](C(=O)Nc2cc(F)c([Si](C)(C)C)cc2F)N(C)C(=O)c2cc(O)no2)cc1` [N-((1R)-2-((2,5-difluoro-4-(trimethylsilyl)phenyl)amino)-1-(4-methoxyphenyl)-2-oxoethyl)-3-hydroxy-N-methyl-1,2-oxazole-5-carboxamide], the inhibition at 100 µM in the series with IL17A (Homo sapiens, 24 h) was determined as 18.2%.

On to `COCc1ccc([C@@H](NC(=O)CCS(C)(=O)=O)C(=O)Nc2ccc([Si](C)(C)C)c(F)c2)cc1` [N-((1R)-2-((3-fluoro-4-(trimethylsilyl)phenyl)amino)-1-(4-(methoxymethyl)phenyl)-2-oxoethyl)-3-(methylsulfonyl)propanamide], for which the inhibition at 100 µM with IL17A (Homo sapiens, 24 h) was determined as 67.4%.

Take `COCc1ccc([C@@H](NC(=O)N2CC(O)C2)C(=O)Nc2ccc([Si](C)(C)C)c(F)c2)cc1` [N-((1R)-2-((3-fluoro-4-(trimethylsilyl)phenyl)amino)-1-(4-(methoxymethyl)phenyl)-2-oxoethyl)-3-hydroxyazetidine-1-carboxamide]: the inhibition at 100 µM in the series on IL17A (Homo sapiens, 24 h) was 54.6%.

`COCc1ccc([C@@H](NC(=O)C2CCOCC2)C(=O)Nc2ccc([Si](C)(C)C)c(F)c2)cc1` [N-((1R)-2-((3-fluoro-4-(trimethylsilyl)phenyl)amino)-1-(4-(methoxymethyl)phenyl)-2-oxoethyl)tetrahydro-2H-pyran-4-carboxamide]: in the series with IL17A (Homo sapiens, 24 h), the inhibition at 100 µM was -20.1%.

As to `CC(C)(C)c1ccc(NC(=O)[C@H](NC(=O)C(O)C(F)(F)F)C2CCOCC2)cc1Cl` (stereo partly drawn) [N-((1R)-2-((4-tert-butyl-3-chlorophenyl)amino)-2-oxo-1-(tetrahydro-2H-pyran-4-yl)ethyl)-3,3,3-trifluoro-2-hydroxypropanamide], the inhibition at 100 µM in the series with IL17A was 71.3%.

Turning to `CCn1c2ccccc2c2cc(C(=O)NCC(C)CC(=O)Nc3ccc(C#N)c(Cl)c3)ccc21` (centres unmarked) [N-{4-[(3-chloro-4-cyanophenyl)amino]-2-methyl-4-oxobutyl}-9-ethyl-9H-carbazole-3-carboxamide], the inhibition at 100 µM with IL17A (Homo sapiens, 24 h) was determined as 24.5%.

Take `Cn1ncc2cc([C@@H](NC(=O)[C@@H]3CNC(=O)C3)C(=O)Nc3ccc([Si](C)(C)C)c(F)c3)ccc21` [drawing 79, (3S)-N-((1R)-2-((3-fluoro-4-(trimethylsilyl)phenyl)amino)-1-(1-methyl-1H-indazol-5-yl)-2-oxoethyl)-5-oxopyrrolidine-3-carboxamide]: the inhibition at 100 µM with IL17A (Homo sapiens, 24 h) came out at 45.7%.

As to `Cn1ncc2cc([C@@H](NC(=O)[C@@H]3CNC(=O)C3)C(=O)Nc3ccc([Si](C)(C)C)c(F)c3)ccc21` [drawing 89, (3S)-N-(2-((3-fluoro-4-(trimethylsilyl)phenyl)amino)-1-(1-methyl-1H-indazol-5-yl)-2-oxoethyl)-5-oxopyrrolidine-3-carboxamide], the “Activity in sRICA (% inhibition of IL17A)” value in the series on IL17A is given as 36.72%.
